Like-named read-outs stand apart in the source and are kept apart here.

What all share (assay type): biochemical
The target in test [1] is T1, Human Calpain 1/NS1 (Homo sapiens, UniProt P07384).
T1 sequence (P07384 1-714): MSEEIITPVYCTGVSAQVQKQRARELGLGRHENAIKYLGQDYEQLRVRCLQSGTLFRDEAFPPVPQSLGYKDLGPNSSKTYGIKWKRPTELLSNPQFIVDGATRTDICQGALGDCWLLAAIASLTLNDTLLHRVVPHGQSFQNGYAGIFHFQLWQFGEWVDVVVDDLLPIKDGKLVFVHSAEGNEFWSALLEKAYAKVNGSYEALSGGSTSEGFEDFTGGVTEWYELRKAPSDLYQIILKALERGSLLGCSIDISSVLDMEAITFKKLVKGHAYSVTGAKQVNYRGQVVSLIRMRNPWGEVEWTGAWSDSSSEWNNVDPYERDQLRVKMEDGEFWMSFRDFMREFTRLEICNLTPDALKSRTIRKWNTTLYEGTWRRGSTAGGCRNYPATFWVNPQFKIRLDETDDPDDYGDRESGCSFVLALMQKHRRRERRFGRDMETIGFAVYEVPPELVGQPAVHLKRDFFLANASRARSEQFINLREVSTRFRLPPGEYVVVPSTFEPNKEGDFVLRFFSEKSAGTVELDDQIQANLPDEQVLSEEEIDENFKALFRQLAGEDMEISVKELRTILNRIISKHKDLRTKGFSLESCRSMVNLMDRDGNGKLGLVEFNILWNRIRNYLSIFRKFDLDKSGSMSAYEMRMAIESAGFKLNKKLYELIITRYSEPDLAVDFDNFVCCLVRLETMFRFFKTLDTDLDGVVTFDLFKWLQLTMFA
T1 sequence (P04632 1-268 partner): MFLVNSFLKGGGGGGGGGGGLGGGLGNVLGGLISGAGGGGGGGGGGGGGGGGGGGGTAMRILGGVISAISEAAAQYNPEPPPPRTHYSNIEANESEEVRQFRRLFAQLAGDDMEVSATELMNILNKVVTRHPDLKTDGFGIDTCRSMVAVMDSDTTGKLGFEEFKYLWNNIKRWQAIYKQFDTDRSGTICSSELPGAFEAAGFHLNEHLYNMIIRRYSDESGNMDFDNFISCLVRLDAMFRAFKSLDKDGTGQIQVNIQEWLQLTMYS
The experiment in a line: Calpain inhibition continuous fluorescence (FRET) assay, Human Calpain 1/NS1. The settings on record: read-out: Human Calpain 1/NS1 IC50. Put shortly:
(§1)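 Buffer 50 mM Tris pH 7.5/100 mM NaCl/1 mM DTT; enzyme + cpd preinc 25C; start w/ FRET substrate + CaCl2; kinetic 490/520 nm, 10 min; slopes 1-5 min; 4-PL IC50.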

In test [2] the target is T2, Human Calpain 2/NS1 (Homo sapiens, UniProt P17655).
T2 sequence (P17655 1-700): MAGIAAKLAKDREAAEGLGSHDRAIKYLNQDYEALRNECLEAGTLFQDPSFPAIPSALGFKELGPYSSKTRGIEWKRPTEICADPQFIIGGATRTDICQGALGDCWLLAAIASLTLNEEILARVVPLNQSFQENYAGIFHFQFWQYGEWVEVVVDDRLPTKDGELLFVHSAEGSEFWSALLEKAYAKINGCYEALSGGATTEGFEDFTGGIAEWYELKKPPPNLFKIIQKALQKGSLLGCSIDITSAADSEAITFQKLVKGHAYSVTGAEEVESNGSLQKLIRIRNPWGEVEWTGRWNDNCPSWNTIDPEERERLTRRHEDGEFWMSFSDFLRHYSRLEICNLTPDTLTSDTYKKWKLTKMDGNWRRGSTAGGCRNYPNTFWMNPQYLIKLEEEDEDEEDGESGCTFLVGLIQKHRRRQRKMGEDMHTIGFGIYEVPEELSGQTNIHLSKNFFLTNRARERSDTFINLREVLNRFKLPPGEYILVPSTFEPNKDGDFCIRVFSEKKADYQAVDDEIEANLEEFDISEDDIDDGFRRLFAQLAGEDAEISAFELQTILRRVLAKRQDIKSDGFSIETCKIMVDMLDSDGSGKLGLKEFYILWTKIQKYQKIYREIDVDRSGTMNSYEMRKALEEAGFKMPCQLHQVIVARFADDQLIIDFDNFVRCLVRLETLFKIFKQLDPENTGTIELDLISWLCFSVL
T2 sequence (P04632 1-268 partner): T1 sequence (P04632 1-268 partner)
The experiment in a line: Calpain inhibition continuous fluorescence (FRET) assay, Human Calpain 2/NS1. The settings on record: read-out: Human Calpain 2/NS1 IC50. Put shortly:
as §1

The target in test [3] is T3, Human Calpain 9/NS1 (Homo sapiens, UniProt O14815).
T3 sequence (O14815 1-690): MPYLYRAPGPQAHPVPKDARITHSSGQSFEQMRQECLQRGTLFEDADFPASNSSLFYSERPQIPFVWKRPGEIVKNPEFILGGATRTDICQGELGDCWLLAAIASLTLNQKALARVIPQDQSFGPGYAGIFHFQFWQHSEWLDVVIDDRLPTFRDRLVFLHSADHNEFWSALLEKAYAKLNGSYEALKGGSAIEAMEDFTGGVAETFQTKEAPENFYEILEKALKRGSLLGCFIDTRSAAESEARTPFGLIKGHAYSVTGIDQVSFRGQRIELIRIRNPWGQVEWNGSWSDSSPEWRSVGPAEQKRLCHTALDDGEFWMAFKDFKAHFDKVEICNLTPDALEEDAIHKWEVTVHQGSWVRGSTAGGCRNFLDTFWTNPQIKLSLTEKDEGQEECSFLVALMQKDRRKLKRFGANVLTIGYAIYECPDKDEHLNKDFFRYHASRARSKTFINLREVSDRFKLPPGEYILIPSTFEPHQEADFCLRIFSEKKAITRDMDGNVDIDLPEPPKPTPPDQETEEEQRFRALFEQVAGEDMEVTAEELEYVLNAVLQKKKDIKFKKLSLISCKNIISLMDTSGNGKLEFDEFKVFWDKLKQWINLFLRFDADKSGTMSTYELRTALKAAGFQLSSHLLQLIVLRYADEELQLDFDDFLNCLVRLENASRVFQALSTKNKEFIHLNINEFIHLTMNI
T3 sequence (P04632 1-268 partner): T1 sequence (P04632 1-268 partner)
The experiment in a line: Calpain inhibition continuous fluorescence (FRET) assay, Human Calpain 9/NS1. Conditions: read-out: Human Calpain 9/NS1 IC50. Put shortly:
as §1

Turning to `O=C(NC1CC1)C(=O)[C@H](Cc1ccccc1)NC(=O)c1sc(C2CC2)nc1-c1ccccc1` [Compound 135, (S)-2-cyclopropyl-N-(4-(cyclopropylamino)-3,4-dioxo-1-phenylbutan-2-yl)-4-phenylthiazole-5-carboxamide], the IC50 is below 3 µM in test [1] (Column A), below 3 µM in test [2] (Column B) and above 10 µM in test [3] (Column C).

Regarding `Cc1noc(-c2ccccc2)c1C(=O)N[C@@H](Cc1ccccc1)C(=O)C(=O)NCc1ccc(S(C)(=O)=O)cc1` [Compound 151, (S)-3-methyl-N-(4-((4-(methylsulfonyl)benzyl)amino)-3,4-dioxo-1-phenylbutan-2-yl)-5-phenylisoxazole-4-carboxamide], the IC50 in test [1] (Column A), in test [2] (Column B) and in test [3] (Column C) was below 3 µM in each case.

With `Cc1noc(-c2ccccc2)c1C(=O)N[C@@H](Cc1ccccc1)C(=O)C(=O)NCc1ccc(OC(F)(F)F)cc1` [Compound 247, (S)—N-(3,4-dioxo-1-phenyl-4-((4-(trifluoromethoxy)benzyl)amino)butan-2-yl)-3-methyl-5-phenylisoxazole-4-carboxamide], the IC50 in test [1] (Column A), in test [2] (Column B) and in test [3] (Column C) was 3 to 10 µM in each case.

Regarding `NC(=O)C(=O)C(Cc1ccccc1)NC(=O)c1c(Cl)cnn1-c1ccccc1` (stereo not drawn) [Compound 280, N-(4-amino-3,4-dioxo-1-phenylbutan-2-yl)-4-chloro-1-phenyl-1H-pyrazole-5-carboxamide], the IC50 in test [1] (Column A), in test [2] (Column B) and in test [3] (Column C) was below 3 µM throughout.

As for `Cc1cc(C(=O)N[C@@H](Cc2ccccc2)C(=O)C(N)=O)n(-c2cccc3ncccc23)n1` [Compound 108, (S)—N-(4-amino-3,4-dioxo-1-phenylbutan-2-yl)-3-methyl-1-(quinolin-5-yl)-1H-pyrazole-5-carboxamide], the IC50 in test [1] (Column A), in test [2] (Column B) and in test [3] (Column C) was below 3 µM throughout.

Regarding `NC(=O)C(=O)[C@H](Cc1ccccc1)NC(=O)c1cncn1-c1n[nH]c2ccccc12` [Compound 69, (S)—N-(4-amino-3,4-dioxo-1-phenylbutan-2-yl)-1-(1H-indazol-3-yl)-1H-imidazole-5-carboxamide], the IC50 in test [1] (Column A), in test [2] (Column B) and in test [3] (Column C) was below 3 µM throughout.

In the case of `NC(=O)C(=O)[C@H](Cc1ccccc1)NC(=O)c1c(Cl)nsc1-c1ccccc1` [Compound 213, (S)—N-(4-amino-3,4-dioxo-1-phenylbutan-2-yl)-3-chloro-5-phenylisothiazole-4-carboxamide], the IC50 in test [1] (Column A), in test [2] (Column B) and in test [3] (Column C) was below 3 µM in each case.

For `Cc1noc(-c2ccccc2)c1C(=O)N[C@@H](Cc1ccccc1)C(=O)C(=O)NCc1ccc(Cl)c(Cl)c1` [Compound 101, (S)—N-(4-((3,4-dichlorobenzyl)amino)-3,4-dioxo-1-phenylbutan-2-yl)-3-methyl-5-phenylisoxazole-4-carboxamide], the IC50 in test [1] (Column A), in test [2] (Column B) and in test [3] (Column C) was above 10 µM throughout.

Turning to `Cn1ncc(C(=O)N[C@@H](Cc2ccccc2)C(=O)C(N)=O)c1-c1cccnc1` [Compound 189, (S)—N-(4-amino-3,4-dioxo-1-phenylbutan-2-yl)-1-methyl-5-(pyridin-3-yl)-1H-pyrazole-4-carboxamide], the IC50 in test [1] (Column A), in test [2] (Column B) and in test [3] (Column C) was below 3 µM in each case.

Regarding `Cc1cc(C(=O)N[C@@H](Cc2ccccc2)C(=O)C(N)=O)n(-c2cncnc2)n1` [Compound 138, (S)—N-(4-amino-3,4-dioxo-1-phenylbutan-2-yl)-3-methyl-1-(pyrimidin-5-yl)-1H-pyrazole-5-carboxamide], the IC50 in test [1] (Column A), in test [2] (Column B) and in test [3] (Column C) was below 3 µM in each case.

Take `Cn1cc(C(=O)NC(Cc2ccccc2)C(=O)C(N)=O)c(-c2ccc(Cl)s2)n1` (stereo not drawn) [Compound 621, N-(4-amino-3,4-dioxo-1-phenylbutan-2-yl)-3-(5-chlorothiophen-2-yl)-1-methyl-1H-pyrazole-4-carboxamide]: the IC50 in test [1], in test [2] and in test [3] was below 3 µM throughout.

As to `Cc1nc(C(=O)NC(Cc2ccccc2)C(=O)C(N)=O)c(-c2ccccn2)o1` (stereo not drawn) [Compound 314, N-(4-amino-3,4-dioxo-1-phenylbutan-2-yl)-2-methyl-5-(pyridin-2-yl)oxazole-4-carboxamide], the IC50 in test [1], in test [2] and in test [3] was 3 to 10 µM throughout.

Take `Cc1nc(-c2ccccc2)c(C(=O)N[C@@H](Cc2ccccc2)C(=O)C(=O)NC2CC2)s1` [Compound 124, (S)—N-(4-(cyclopropylamino)-3,4-dioxo-1-phenylbutan-2-yl)-2-methyl-4-phenylthiazole-5-carboxamide]: the IC50 in test [1] (Column A), in test [2] (Column B) and in test [3] (Column C) was below 3 µM throughout.

As to `CC[C@H](NC(=O)c1c(C)noc1-c1ccccc1)C(=O)C(N)=O` [Compound 47], the IC50 in test [1] (Column A), in test [2] (Column B) and in test [3] (Column C) was below 3 µM throughout.

As to `O=C(NC1CC1)C(=O)[C@H](Cc1ccccc1)NC(=O)c1scnc1-n1cc2ccccc2n1` [Compound 64, (S)—N-(4-(cyclopropylamino)-3,4-dioxo-1-phenylbutan-2-yl)-4-(2H-indazol-2-yl)thiazole-5-carboxamide], the IC50 in test [1] (Column A), in test [2] (Column B) and in test [3] (Column C) was below 3 µM throughout.

On to `COc1ccc(F)c(-c2oncc2C(=O)NC(Cc2ccccc2)C(=O)C(N)=O)c1` (stereo not drawn) [Compound 619, N-(4-amino-3,4-dioxo-1-phenylbutan-2-yl)-5-(2-fluoro-5-methoxyphenyl)isoxazole-4-carboxamide], for which the IC50 in test [1], in test [2] and in test [3] was below 3 µM throughout.
